Experimental findings from BindingDB's records for PubMed 2139469 (University of Nebraska, 1990) are described below.

Structures are written as SMILES. Counter-ions that a name gives are not always drawn.

One may read the Ki as a dissociation constant, usually derived from enzyme kinetics or from competition with a known ligand. Higher therefore signals weaker binding.

The test deals with D(1A) dopamine receptor (Bos taurus, UniProt Q95136).
Sequence of D(1A) dopamine receptor (Q95136 whole entry): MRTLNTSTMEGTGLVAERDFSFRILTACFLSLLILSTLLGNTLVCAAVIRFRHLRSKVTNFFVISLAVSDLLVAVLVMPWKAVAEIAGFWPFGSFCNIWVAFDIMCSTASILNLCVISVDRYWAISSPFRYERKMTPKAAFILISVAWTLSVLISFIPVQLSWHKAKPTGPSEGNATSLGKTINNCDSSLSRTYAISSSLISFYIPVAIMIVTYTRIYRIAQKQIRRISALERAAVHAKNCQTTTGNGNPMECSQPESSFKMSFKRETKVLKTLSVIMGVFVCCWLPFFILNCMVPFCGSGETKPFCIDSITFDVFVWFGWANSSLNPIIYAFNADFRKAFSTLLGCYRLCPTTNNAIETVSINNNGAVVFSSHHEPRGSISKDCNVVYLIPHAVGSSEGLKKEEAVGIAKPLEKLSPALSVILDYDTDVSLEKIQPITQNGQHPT
In turn, `CC[C@@H](CO)NC(=O)[C@@H]1C=C2c3cccc4c3c(cn4C)C[C@H]2N(C)C1` came in with an inhibitory constant (Ki) of 1580 nM.

The compound `O=c1[nH]c2ccccc2n1CCCN1CCC(n2c(=O)[nH]c3cc(Cl)ccc32)CC1` yielded a Ki of 2040 nM.

Compound `CSc1ccc2c(c1)N(CC[C@@H]1CCCCN1C)c1ccccc1S2` [10-[2-(1-Methyl-piperidin-2-yl)-ethyl]-2-methylsulfanyl-10H-phenothiazine (thioridazine)] had a Ki of 75.4 nM.

As to `Cc1ccc(N(CC2=NCCN2)c2cccc(O)c2)cc1` [SMR000059054], the Ki was more than 10000 nM.

Compound `CN1CCN2c3ccccc3Cc3ccccc3[C@H]2C1` [MIANSERIN (+)] displayed a Ki of 318 nM.

The compound `O=C(CCCN1CCC(O)(c2ccc(Cl)cc2)CC1)c1ccc(F)cc1` [4-[4-(4-Chloro-phenyl)-4-hydroxy-piperidin-1-yl]-1-(4-fluoro-phenyl)-butan-1-one;propionate(HCl)] displayed a Ki of 315 nM.

Consider `CN1[C@@H]2CC[C@H]1CC(OC(=O)[C@H](CO)c1ccccc1)C2` (some centres not stated) [CAS_51-55-8], for which the Ki was more than 10000 nM.

For `CCN1CCCC1CNC(=O)c1cc(S(N)(=O)=O)ccc1OC` (configuration not stated) [N-[(1-ethylpyrrolidin-2-yl)methyl]-2-methoxy-5-sulfamoylbenzamide], the inhibition constant (Ki) is more than 10000 nM.

In turn, `CN(C)CCCSc1ccccc1NC(=O)/C=C/c1ccccc1` [CINANSERIN] registered a Ki of 2090 nM.

In the case of `O=C(c1ccc(F)cc1)C1CCN(CCn2c(=O)[nH]c3ccccc3c2=O)CC1` [3-(2-{4-[(4-fluorophenyl)carbonyl]piperidin-1-yl}ethyl)-1,2,3,4-tetrahydroquinazoline-2,4-dione], the inhibition constant Ki was 395 nM.

Take `OCCC1CCN(CC/C=C2/c3ccc(F)cc3Sc3ccc(C(F)(F)F)cc32)CC1` [Lu 12-331]: the affinity, expressed as Ki, was 0.29 nM.

The compound `C=CCN1CC[C@]23c4c5ccc(O)c4O[C@H]2C(=O)CC[C@@]3(O)[C@H]1C5` [[17-(2,3-3H-2-propenyl)]-4,5a-epoxy-3,14-dihydroxymorphinan-6-one] returned an inhibitory constant (Ki) of more than 10000 nM.
